The values that follow come from publication PMC5206724, “Insensitivity to pain induced by a potent selective closed-state Nav1.7 inhibitor” (Scientific Reports, 2017).

The target in one series is T1, hNav1.7 (Homo sapiens, UniProt Q15858).
T1 construct: host or cells: HEK293
Kind of series: cell-based. The note with it: patch clamp method not given; read-out: pIC50 Nav1.7 (converted). For orientation: In patch-clamp work, channel activity is measured electrically.

A further series concerns the target hNav1.6 (Homo sapiens, UniProt Q9UQD0). Nature of the series: cell-based. The note with it: patch clamp method not given; read-out: pIC50 Nav1.6 (converted).
The target of a further series is hNav1.4 (Homo sapiens, UniProt P35499). Nature of the series: cell-based. The settings on record: patch clamp method not given; read-out: pIC50 Nav1.4 (converted).
Series [1] deals with mixed sodium current, rat DRG cells. It counts as cell-based.
In series [2] the test system is TTX-resistant sodium current, rat DRG cells. Nature of the series: Rat DRG patch clamp, TTX-resistant current. The class given is cell-based.
Series [3] deals with TTX-sensitive current, rat DRG cells. It counts as cell-based.
The conditions of series [4]: rat, in vivo.
For series [5] the following is noted: rat, in vivo, iv; cited from earlier work.
In series [6] the test system is formalin-induced flinching, rat. The settings on record: in vivo.
In series [7] the test system is formalin-induced flinching, morphine-tolerant rats. The note with it: rat, in vivo; cited from earlier work.
For series [8] the test system is unchanged. The settings on record: rat, in vivo. The procedure:
A soft metal band was glued to the plantar side of one hind paw and rats were allowed to acclimate in the test chamber for 30 min. […] The incidence of nociceptive behavior - flinching and shaking of the injected paw was counted by an automated formalin apparatus (University Anesthesia Research and Development Group, Department of Anesthesiology, University of California, San Diego, La Jolla, CA). The number of paw flinches was tallied by minute over 60 min[60]. Total flinches in phase I (0~10 min) and phase II (11~60 min) were calculated.
Male Sprague-Dawley (CD) rats (Charles River, San Diego) ~250–300 g were catheterized intrathecally as described above. The non-indwelling end (PE60) of the catheter was connected to the flow modulator of an osmotic pump (Alzet 2001, 1 μl/h) loaded with morphine or saline vehicle, which underwent priming at 37 °C overnight in sterile saline. The osmotic pump was implanted subcutaneously above the scapula. To induce morphine tolerance, morphine was infused intrathecally by the osmotic pump at a dose of 15 μg/h for 7 days[61]. On day 7 the pumps were extracted and the wounds were closed with the intrathecal catheters left in place. Catheters were flushed with 20 μL of saline.

Sequence of hNav1.6 (Q9UQD0 whole entry): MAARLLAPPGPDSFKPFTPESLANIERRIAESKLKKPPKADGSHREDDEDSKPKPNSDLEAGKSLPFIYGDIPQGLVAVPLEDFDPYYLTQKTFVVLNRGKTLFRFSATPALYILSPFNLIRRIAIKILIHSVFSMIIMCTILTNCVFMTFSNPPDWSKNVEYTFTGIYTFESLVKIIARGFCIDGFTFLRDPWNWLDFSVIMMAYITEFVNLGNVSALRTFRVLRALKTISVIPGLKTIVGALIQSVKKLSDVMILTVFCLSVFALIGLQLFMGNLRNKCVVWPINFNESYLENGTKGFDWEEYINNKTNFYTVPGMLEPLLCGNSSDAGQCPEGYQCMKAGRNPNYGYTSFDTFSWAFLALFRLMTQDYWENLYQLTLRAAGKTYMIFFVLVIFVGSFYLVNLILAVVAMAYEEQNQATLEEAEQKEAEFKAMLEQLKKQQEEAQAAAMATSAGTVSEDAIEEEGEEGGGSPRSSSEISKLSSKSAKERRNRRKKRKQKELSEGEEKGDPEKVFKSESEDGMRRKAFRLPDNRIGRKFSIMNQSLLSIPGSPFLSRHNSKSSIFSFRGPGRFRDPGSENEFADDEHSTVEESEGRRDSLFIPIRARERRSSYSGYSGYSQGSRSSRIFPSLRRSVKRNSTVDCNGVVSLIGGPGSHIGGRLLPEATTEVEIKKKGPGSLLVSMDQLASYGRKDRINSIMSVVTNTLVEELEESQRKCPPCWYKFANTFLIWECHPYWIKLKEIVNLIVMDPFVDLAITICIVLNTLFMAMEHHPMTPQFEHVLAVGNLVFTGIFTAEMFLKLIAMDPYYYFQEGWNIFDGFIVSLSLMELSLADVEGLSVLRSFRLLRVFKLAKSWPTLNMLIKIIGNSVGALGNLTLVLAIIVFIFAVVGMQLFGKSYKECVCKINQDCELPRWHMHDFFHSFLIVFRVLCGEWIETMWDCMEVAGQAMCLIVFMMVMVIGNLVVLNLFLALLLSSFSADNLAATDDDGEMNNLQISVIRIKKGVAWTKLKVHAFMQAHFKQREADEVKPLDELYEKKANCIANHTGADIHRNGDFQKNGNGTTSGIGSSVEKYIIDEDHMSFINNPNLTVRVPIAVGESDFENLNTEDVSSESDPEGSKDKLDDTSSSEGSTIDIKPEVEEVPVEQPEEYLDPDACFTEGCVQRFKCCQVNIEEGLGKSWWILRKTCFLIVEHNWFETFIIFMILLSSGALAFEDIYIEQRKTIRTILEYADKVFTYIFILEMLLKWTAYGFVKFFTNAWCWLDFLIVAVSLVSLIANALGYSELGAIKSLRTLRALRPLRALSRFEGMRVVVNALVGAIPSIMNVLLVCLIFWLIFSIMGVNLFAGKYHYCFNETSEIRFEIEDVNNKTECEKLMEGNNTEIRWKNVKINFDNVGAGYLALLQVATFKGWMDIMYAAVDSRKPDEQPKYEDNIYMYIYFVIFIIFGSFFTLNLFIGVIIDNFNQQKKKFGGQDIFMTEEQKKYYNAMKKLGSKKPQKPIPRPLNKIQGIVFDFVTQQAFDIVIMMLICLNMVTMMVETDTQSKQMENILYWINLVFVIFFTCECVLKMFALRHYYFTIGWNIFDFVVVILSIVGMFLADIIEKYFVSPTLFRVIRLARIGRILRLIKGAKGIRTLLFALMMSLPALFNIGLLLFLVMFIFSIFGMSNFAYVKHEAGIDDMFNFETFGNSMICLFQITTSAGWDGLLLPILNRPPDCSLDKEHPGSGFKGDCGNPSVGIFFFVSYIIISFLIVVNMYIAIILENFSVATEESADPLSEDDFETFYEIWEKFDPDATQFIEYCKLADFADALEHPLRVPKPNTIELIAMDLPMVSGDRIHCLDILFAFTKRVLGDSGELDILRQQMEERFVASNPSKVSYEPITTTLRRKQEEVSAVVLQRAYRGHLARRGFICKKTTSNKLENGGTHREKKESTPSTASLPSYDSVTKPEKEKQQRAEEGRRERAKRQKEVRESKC
T1 sequence (Q15858 whole entry): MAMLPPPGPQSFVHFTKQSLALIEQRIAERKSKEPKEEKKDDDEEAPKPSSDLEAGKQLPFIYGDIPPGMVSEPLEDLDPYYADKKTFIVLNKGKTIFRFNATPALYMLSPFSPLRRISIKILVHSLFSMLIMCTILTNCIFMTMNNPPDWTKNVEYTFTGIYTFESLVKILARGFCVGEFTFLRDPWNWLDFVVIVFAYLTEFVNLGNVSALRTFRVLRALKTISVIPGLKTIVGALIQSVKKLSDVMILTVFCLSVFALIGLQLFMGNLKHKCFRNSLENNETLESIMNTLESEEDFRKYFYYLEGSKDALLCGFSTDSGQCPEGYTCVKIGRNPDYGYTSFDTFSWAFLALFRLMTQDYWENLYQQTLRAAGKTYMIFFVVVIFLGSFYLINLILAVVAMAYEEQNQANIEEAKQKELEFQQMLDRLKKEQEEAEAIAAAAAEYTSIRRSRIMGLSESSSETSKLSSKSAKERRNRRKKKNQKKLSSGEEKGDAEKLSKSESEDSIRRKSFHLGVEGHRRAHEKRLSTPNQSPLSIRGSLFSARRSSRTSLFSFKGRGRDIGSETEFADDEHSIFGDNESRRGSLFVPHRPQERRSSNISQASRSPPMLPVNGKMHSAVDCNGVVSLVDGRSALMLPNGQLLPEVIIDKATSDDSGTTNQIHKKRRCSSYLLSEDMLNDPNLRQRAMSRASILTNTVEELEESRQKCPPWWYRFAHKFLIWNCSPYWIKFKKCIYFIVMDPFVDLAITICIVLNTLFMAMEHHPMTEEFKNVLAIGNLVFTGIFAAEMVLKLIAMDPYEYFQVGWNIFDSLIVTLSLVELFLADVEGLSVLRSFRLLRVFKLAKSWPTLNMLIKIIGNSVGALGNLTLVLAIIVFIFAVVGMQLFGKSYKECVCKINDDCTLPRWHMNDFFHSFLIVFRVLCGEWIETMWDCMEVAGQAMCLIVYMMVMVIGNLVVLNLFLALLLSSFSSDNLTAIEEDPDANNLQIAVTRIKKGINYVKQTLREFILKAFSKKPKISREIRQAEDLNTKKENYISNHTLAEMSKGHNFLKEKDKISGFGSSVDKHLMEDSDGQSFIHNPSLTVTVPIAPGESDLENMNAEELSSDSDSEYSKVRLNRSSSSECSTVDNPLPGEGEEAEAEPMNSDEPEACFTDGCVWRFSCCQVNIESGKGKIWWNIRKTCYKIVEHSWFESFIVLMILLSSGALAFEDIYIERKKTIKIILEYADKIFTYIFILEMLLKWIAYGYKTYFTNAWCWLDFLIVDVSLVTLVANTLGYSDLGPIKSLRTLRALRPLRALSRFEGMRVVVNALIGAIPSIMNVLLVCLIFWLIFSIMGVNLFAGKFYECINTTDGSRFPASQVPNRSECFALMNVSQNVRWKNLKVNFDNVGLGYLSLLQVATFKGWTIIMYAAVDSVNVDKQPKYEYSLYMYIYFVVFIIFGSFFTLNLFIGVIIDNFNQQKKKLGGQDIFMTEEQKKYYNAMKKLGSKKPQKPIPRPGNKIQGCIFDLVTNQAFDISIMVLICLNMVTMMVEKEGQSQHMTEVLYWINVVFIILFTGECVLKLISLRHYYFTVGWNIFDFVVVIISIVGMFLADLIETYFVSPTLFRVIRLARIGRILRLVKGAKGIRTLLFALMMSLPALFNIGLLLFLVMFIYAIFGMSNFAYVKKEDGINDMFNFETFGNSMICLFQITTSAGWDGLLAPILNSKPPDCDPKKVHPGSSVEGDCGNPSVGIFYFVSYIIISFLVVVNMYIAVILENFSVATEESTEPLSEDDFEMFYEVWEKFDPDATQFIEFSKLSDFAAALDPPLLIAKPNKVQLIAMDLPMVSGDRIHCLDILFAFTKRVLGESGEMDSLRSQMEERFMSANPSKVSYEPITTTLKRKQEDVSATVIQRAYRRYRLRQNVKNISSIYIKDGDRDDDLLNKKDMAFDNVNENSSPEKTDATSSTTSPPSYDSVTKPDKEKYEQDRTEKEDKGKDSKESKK

Regarding `CSCC[C@@H]1NC(=O)CNC(=O)[C@H](CCC(=O)O)NC(=O)[C@@H]2CSSC[C@H](NC(=O)[C@@H](N)Cc3ccc(O)cc3)C(=O)N[C@@H](CCC(N)=O)C(=O)N[C@@H](CCCCN)C(=O)N[C@@H](Cc3c[nH]c4ccccc34)C(=O)N[C@@H](CCSC)C(=O)N[C@@H](CCC(N)=O)C(=O)N[C@@H]([C@@H](C)O)C(=O)N[C@H]3CSSC[C@H](NC(=O)[C@H](C(C)C)NC1=O)C(=O)N[C@@H](CCCNC(=N)N)C(=O)N[C@@H](CC(C)C)C(=O)N[C@@H](Cc1c[nH]c4ccccc14)C(=O)N[C@H](C(=O)N[C@@H](CCCCN)C(=O)N[C@@H](CCCCN)C(=O)N[C@@H](CCCCN)C(=O)N[C@@H](CC(C)C)C(=O)N[C@@H](CC(C)C)C(=O)O)CSSC[C@H](NC(=O)[C@H](CCCCN)NC(=O)[C@H](CCCNC(=N)N)NC(=O)[C@H](CCC(=O)O)NC(=O)[C@H](CO)NC(=O)[C@H](CC(=O)O)NC3=O)C(=O)N2` [ProTX-II W7Q, W30L], the IC50 is 0.01 µM on hNav1.7, 2 µM on hNav1.6 and 3.98 µM on hNav1.4.
For `NC1=N[C@H](O)[C@H]2[C@H]3O[C@]4(O)O[C@@H]([C@@H](O)[C@@]2(N1)[C@@H]4O)[C@]3(O)CO` [TTX, tetrodotoxin], the “block, mixed cells” value in series [1] is listed as 29–68%. For the same molecule, the “block, predominantly TTX-resistant cells” value in [2] is listed as under 10%. Moreover, in [3], the “block, predominantly TTX-sensitive cells” value is recorded as ~ 100%.
In the case of ziconotide [reference compound], in [4], the behavioral side effects result is “whole body shakes, increased muscle tone and “serpentine” tail movement”; the scratching behavior entry is reported as “did not induce scratching behavior”. In [5], the “histamine release and hemodynamic changes” value is “induce histamine release and associated hemodynamic changes”. Besides, the “pED50 formalin (phase II)” value in series [6] is 7.1 ± 0.18 −log g.
As to `CN1CC[C@]23c4c5ccc(O)c4O[C@H]2[C@@H](O)C=C[C@H]3[C@H]1C5` [morphine], the “block of phase 2 during morphine infusion, day 2” value in series [7] is listed as “significant block of phase 2 on day 2”. Besides, in series [8], the “efficacy during morphine infusion, day 7” value is on record as “loses its efficacy by day 7” and the “phase II formalin flinching, morphine-tolerant rats” value is “did not significantly reduce phase II formalin flinching”. In series [6], the “pED50 formalin (phase II)” value was 5.4 ± 0.22 −log g.
